According to US20230391772A1, “METHODS AND COMPOSITIONS FOR TARGETED PROTEIN DEGRADATION” (Ranok Therapeutics (Hangzhou) Co. Ltd., priority 2020, published 2023):

Tests used:
HSP90a protein = biological target: T1, HSP90a protein (Homo sapiens, UniProt P07900); test: HSP90α-binding fluorescent polarization (FP) assay, BODIPY-labeled RNK04010 probe; details: FP competition with RNK04010 (BODIPY-labeled), 5 nM, 300 min at 25° C.
T1 construct: purchased BPS Bioscience 50298
In short: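 N-terminal HSP90a construct; tracer 5 nM final (FITC-geldanamycin or BODIPY-RNK04010, a labeled triazolone binder). Compounds 20 μM–5.2 nM, 2.5-fold steps. 25° C, 120 min (FITC) / 300 min (BODIPY). FP readout.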

[1] = test system: MIA PaCa-2 human pancreatic carcinoma; test: MIA PaCa-2 CCK-8 proliferation assay; type: cell-based; details: Homo sapiens, MIA PaCa-2, 72 h, MIA PaCa-2 cells
In short: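 Three KRAS(G12C) lines are used, MIA PaCa-2 at two mutant copies and the NSCLC lines NCI-H358 and NCI-H23 at one. Each compound is titrated 3-fold from 20 μM to 1.02 nM, and proliferation is scored by CCK-8.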

KRAS(G12C) = KRAS(G12C) (Homo sapiens, UniProt P01116, G12C); test: KRAS(G12C)/SOS1 homogeneous time-resolved fluorescence (HTRF) assay; design: purchased Cisbio 63ADK000CB16PEG; details: absence of GTP, 4° C. for 3 hr, read-out: KRAS (G12C) binding
Sequence of KRAS(G12C) (P01116 1-188 isoform P01116-2 G12C): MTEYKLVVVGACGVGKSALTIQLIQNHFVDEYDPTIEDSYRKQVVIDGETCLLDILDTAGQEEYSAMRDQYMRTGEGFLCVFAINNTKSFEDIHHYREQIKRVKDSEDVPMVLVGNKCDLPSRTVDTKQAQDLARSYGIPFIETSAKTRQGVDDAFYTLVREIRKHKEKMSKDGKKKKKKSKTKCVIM
In short: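 Three-hour incubation at 4 °C of 3-fold compound dilutions (lowest 1.02 nM) with KRAS(G12C), SOS1 and detection reagents, GTP absent. Disruption of the KRAS(G12C)/SOS1 complex detected by time-resolved fluorescence.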

C=CC(=O)N1CCN(c2nc(OC[C@@H]3C[C@@H](OC(=O)N4CCN(Cc5ccc(-n6c(O)nnc6-c6cc(CC)c(O)cc6O)cc5)CC4)CN3C)nc3c2CCN(c2cccc4cccc(Cl)c24)C3)C[C@@H]1CC#N [Compound 294, (3R,5S)-5-(((4-((S)-4-acryloyl-3-(cyanomethyl)piperazin-1-yl)-7-(8-chloronaphthalen-1-yl)-5,6,7,8-tetrahydropyrido[3,4-d]pyrimidin-2-yl)oxy)methyl)-1-methylpyrrolidin-3-yl 4-(4-(3-(5-ethyl-2,4-dihydroxyphenyl)-5-hydroxy-4H-1,2,4-triazol-4-yl)benzyl)piperazine-1-carboxylate]
IC50 (HSP90a protein): < 100 nM | EC50 [1]: > 1000 nM | IC50 (KRAS(G12C)): > 1000 nM

C=CC(=O)N1CCN(c2nc(OC[C@@H]3CC[C@H](CN4CCN(C(=O)C5CCN(Cc6ccc(-n7c(O)nnc7-c7cc(C(C)C)c(O)cc7O)cc6)CC5)CC4)N3C)nc3c2CCN(c2cccc4cccc(Cl)c24)C3)C[C@@H]1CC#N [Compound 313, 2-[(2S)-4-[7-(8-chloronaphthalen-1-yl)-2-{[(2S,5R)-5-({4-[1-({4-[3-(2,4-dihydroxy-5-isopropylphenyl)-5-hydroxy-1,2,4-triazol-4-yl]phenyl}methyl)piperidine-4-carbonyl]piperazin-1-yl}methyl)-1-methylpyrrolidin-2-yl]methoxy}-5H,6H,8H-pyrido [3,4-d]pyrimidin-4-yl]-1-(prop-2-enoyl)piperazin-2-yl]acetonitrile]
IC50 (HSP90a protein): < 100 nM | EC50 [1]: < 100 nM | IC50 (KRAS(G12C)): < 100 nM

C=CC(=O)N1CCN(c2nc(OC[C@@H]3C[C@H](N4CCC5(CCN(Cc6cc(C(C)C)c(O)cc6O)CC5)CC4)CN3C)nc3c2CCN(c2cccc4cccc(Cl)c24)C3)C[C@@H]1CC#N [Compound 338, 2-[(2S)-4-[7-(8-chloronaphthalen-1-yl)-2-{[(2S,4S)-4-{9-[(2,4-dihydroxy-5-isopropylphenyl)methyl]-3,9-diazaspiro[5.5]undecan-3-yl}-1-methylpyrrolidin-2-yl]methoxy}-5H,6H,8H-pyrido[3,4-d]pyrimidin-4-yl]-1-(prop-2-enoyl)piperazin-2-yl]acetonitrile]
IC50 (HSP90a protein): 100 to 1000 nM | EC50 [1]: > 1000 nM | IC50 (KRAS(G12C)): < 100 nM

C=CC(=O)N1CCN(c2nc(OCC3CCC(COCC(=O)N4CCN(Cc5ccc(-n6c(O)nnc6-c6cc(CC)c(O)cc6O)cc5)CC4)N3)nc3c2CCN(c2cccc4cccc(Cl)c24)C3)C[C@@H]1CC#N (stereo partly drawn) [Compound 297, 2-((2S)-1-acryloyl-4-(7-(8-chloronaphthalen-1-yl)-2-((5-((2-(4-(4-(3-(5-ethyl-2,4-dihydroxyphenyl)-5-hydroxy-4H-1,2,4-triazol-4-yl)benzyl)piperazin-1-yl)-2-oxoethoxy)methyl)pyrrolidin-2-yl)methoxy)-5,6,7,8-tetrahydropyrido[3,4-d]pyrimidin-4-yl)piperazin-2-yl)acetonitrile]
IC50 (HSP90a protein): < 100 nM | EC50 [1]: > 1000 nM | IC50 (KRAS(G12C)): > 1000 nM

C=CC(=O)N1CCN(c2nc(OCC3CCC(CN4CCC(Cc5ccc(-n6c(C(=O)NCC(F)(F)F)nnc6-c6cc(C(C)C)c(O)cc6O)cc5)CC4)N3)nc3c2CCN(c2cccc4cccc(Cl)c24)C3)C[C@@H]1CC#N (stereo partly drawn) [Compound 298, 4-(4-((1-((5-(((4-((S)-4-acryloyl-3-(cyanomethyl)piperazin-1-yl)-7-(8-chloronaphthalen-1-yl)-5,6,7,8-tetrahydropyrido[3,4-d]pyrimidin-2-yl)oxy)methyl)pyrrolidin-2-yl)methyl)piperidin-4-yl)methyl)phenyl)-5-(2,4-dihydroxy-5-isopropylphenyl)-N-(2,2,2-trifluoroethyl)-4H-1,2,4-triazole-3-carboxamide]
IC50 (HSP90a protein): < 100 nM | EC50 [1]: 100 to 1000 nM | IC50 (KRAS(G12C)): > 1000 nM

C=CC(=O)N1CCN(c2nc(OC[C@@H]3C[C@H](N4CCC(C(=O)N5CCN(CCNC(=O)c6nnc(-c7cc(C(C)C)c(O)cc7O)n6-c6ccccc6)CC5)CC4)CN3C)nc3c2CCN(c2cccc4cccc(Cl)c24)C3)C[C@@H]1CC#N [Compound 320, N-[2-(4-{1-[(3S,5S)-5-({[7-(8-chloronaphthalen-1-yl)-4-[(3S)-3-(cyanomethyl)-4-(prop-2-enoyl)piperazin-1-yl]-5H,6H,8H-pyrido[3,4-d]pyrimidin-2-yl]oxy}methyl)-1-methylpyrrolidin-3-yl]piperidine-4-carbonyl}piperazin-1-yl)ethyl]-5-(2,4-dihy-droxy-5-isopropylphenyl)-4-phenyl-1,2,4-triazole-3-carboxamide]
IC50 (HSP90a protein): < 100 nM | EC50 [1]: 100 to 1000 nM | IC50 (KRAS(G12C)): < 100 nM

C=CC(=O)N1CCN(c2nc(OC[C@@H]3C[C@@H](NC(=O)C4CCN(Cc5ccc(-n6c(C(N)=O)nnc6-c6cc(C(C)C)c(O)cc6O)cc5)CC4)CN3C)nc3c2CCN(c2cccc4cccc(Cl)c24)C3)C[C@@H]1CC#N [Compound 194, N-((3R,5S)-5-(((4-((S)-4-acryloyl-3-(cyanomethyl)piperazin-1-yl)-7-(8-chloronaphthalen-1-yl)-5,6,7,8-tetrahydropyrido[3,4-d]pyrimidin-2-yl)oxy)methyl)-1-methylpyrrolidin-3-yl)-1-(4-(3-carbamoyl-5-(2,4-dihydroxy-5-isopropylphenyl)-4H-1,2,4-triazol-4-yl)benzyl)piperidine-4-carboxamide]
IC50 (HSP90a protein): < 100 nM | EC50 [1]: 100 to 1000 nM | IC50 (KRAS(G12C)): 100 to 1000 nM

C=CC(=O)N1CCN(c2nc(OC[C@@H]3C[C@H](N4CCC(C(=O)NCCc5ccc(-n6c(O)nnc6-c6cc(C(C)C)c(O)cc6O)cc5)CC4)CN3C)nc3c2CCN(c2cccc4cccc(Cl)c24)C3)C[C@@H]1CC#N [Compound 328, 1-[(3S,5S)-5-({[7-(8-chloronaphthalen-1-yl)-4-[(3S)-3-(cyanomethyl)-4-(prop-2-enoyl)piperazin-1-yl]-5H,6H,8H-pyrido[3,4-d]pyrimidin-2-yl]oxy}methyl)-1-methylpyrrolidin-3-yl]-N-(2-{4-[3-(2,4-dihydroxy-5-isopropylphenyl)-5-hydroxy-1,2,4-triazol-4-yl]phenyl}ethyl)piperidine-4-carboxamide]
IC50 (HSP90a protein): < 100 nM | EC50 [1]: > 1000 nM | IC50 (KRAS(G12C)): < 100 nM

C=CC(=O)N1CCN(c2nc(OC[C@@H]3CC[C@H](C(=O)N4CCN(Cc5ccc(-n6c(O)nnc6-c6cc(C(C)C)c(O)cc6O)cc5)CC4)N3C)nc3c2CCN(c2cccc4cccc(Cl)c24)C3)C[C@@H]1CC#N [Compound 324, 2-[(2S)-4-[7-(8-chloronaphthalen-1-yl)-2-{[(2S,5R)-5-[4-({4-[3-(2,4-dihydroxy-5-isopropylphenyl)-5-hydroxy-1,2,4-triazol-4-yl]phenyl}methyl)piperazine-1-carbonyl]-1-methylpyrrolidin-2-yl]methoxy}-5H,6H,8H-pyrido[3,4-d]pyrimidin-4-yl]-1-(prop-2-enoyl)piperazin-2-yl]acetonitrile]
IC50 (HSP90a protein): < 100 nM | EC50 [1]: 100 to 1000 nM | IC50 (KRAS(G12C)): 100 to 1000 nM

C=CC(=O)N1CCN(c2nc(OC[C@@H]3CCCN(C(=O)C4CCN(Cc5ccc(-n6c(O)nnc6-c6cc(C(C)C)c(O)cc6O)cc5)CC4)C3)nc3c2CCN(c2cccc4cccc(Cl)c24)C3)C[C@@H]1CC#N [Compound 293, 2-((S)-1-acryloyl-4-(7-(8-chloronaphthalen-1-yl)-2-(((R)-1-(1-(4-(3-(2,4-dihydroxy-5-isopropylphenyl)-5-hydroxy-4H-1,2,4-triazol-4-yl)benzyl)piperidine-4-carbonyl)piperidin-3-yl)methoxy)-5,6,7,8-tetrahydropyrido[3,4-d]pyrimidin-4-yl)piperazin-2-yl)acetonitrile]
IC50 (HSP90a protein): < 100 nM | EC50 [1]: 100 to 1000 nM | IC50 (KRAS(G12C)): > 1000 nM

C=CC(=O)N1CCN(c2nc(OCCN3CCC4(CC3)CCN(C(=O)C3CCN(Cc5ccc(-n6c(O)nnc6-c6cc(C(C)C)c(O)cc6O)cc5)CC3)CC4)nc3c2CCN(c2cccc4cccc(Cl)c24)C3)C[C@@H]1CC#N [Compound 218, (S)-2-(1-acryloyl-4-(7-(8-chloronaphthalen-1-yl)-2-(2-(9-(1-(4-(3-(2,4-dihydroxy-5-isopropylphenyl)-5-hydroxy-4H-1,2,4-triazol-4-yl)benzyl)piperidine-4-carbonyl)-3,9-diazaspiro[5.5]undecan-3-yl)ethoxy)-5,6,7,8-tetrahydropyrido[3,4-d]pyrimidin-4-yl)piperazin-2-yl)acetonitrile]
IC50 (HSP90a protein): < 100 nM | EC50 [1]: > 1000 nM | IC50 (KRAS(G12C)): < 100 nM

C=CC(=O)N1CCN(c2nc(OC[C@@H]3C[C@@H](OCC(=O)N4CCC(CN5CCN(Cc6ccc(-n7c(C(=O)NCC(F)(F)F)nnc7-c7cc(CC)c(O)cc7O)cc6)CC5)CC4)CN3C)nc3c2CCN(c2cccc4cccc(Cl)c24)C3)C[C@@H]1CC#N [Compound 300, 4-(4-((4-((1-(2-(((3R,5S)-5-(((4-((S)-4-acryloyl-3-(cyanomethyl)piperazin-1-yl)-7-(8-chloronaphthalen-1-yl)-5,6,7,8-tetrahydropyrido[3,4-d]pyrimidin-2-yl)oxy)methyl)-1-methylpyrrolidin-3-yl)oxy)acetyl)piperidin-4-yl)methyl)piperazin-1-yl)methyl)phenyl)-5-(5-ethyl-2,4-dihydroxyphenyl)-N-(2,2,2-trifluoroethyl)-4H-1,2,4-triazole-3-carboxamide]
IC50 (HSP90a protein): < 100 nM | EC50 [1]: < 100 nM | IC50 (KRAS(G12C)): < 100 nM
